Data on one compound can be found in patent US10300027B2, “Effective sensitizing dose of a gelled immunomodulating topical composition” (Phio Pharmaceuticals Corp., priority 2010, dated 2019).

“And” between values parts separate entries of the source, which are not always exact repeats. Equal entries are not always repeated.

Data set [1] deals with non-genital warts. The data set can be described thus: Example 2: randomized, double-blind, placebo control study, 0.04% DPCP gel twice a week for non-genital warts. In kind it is in vivo, human. Also noted: key to Clearance Score: 3 points=Complete clearance; 2 points=partial clearance: >50% reduction in the area of all treated wart; 1 point=partial eradication: <50% reduction in the area of all treated warts; 0 points=treatment failure: complete or partial eradication not achieved. The note with it: for Clearance Score: per wart of one subject. The procedure: Institutional review board approval was obtained for this study, which was performed using Good Clinical Practice Guidelines and was compliant with the Code of Federal Regulation of the US Food and Drug Administration. A single center, 24 subject, randomized, double-blind, placebo control study using low dose DPCP in a non-volatile vehicle for the treatment of non-genital warts of established.
Patients are assigned to a treatment or placebo group in a 2:1 fashion. The two study gels are identical in appearance. Both groups are sensitized with 0.1 ml of 0.4% DPCP gel which is applied to the inner arm and washed off in 24 hours. Fourteen days after the sensitization dose, 0.1 ml of 0.04% DPCP gel or placebo is applied to each wart, up to a total of 4 warts, […] for 7 consecutive weeks (Day 14, 21, 28, 35, 42, 49, 56, […]). A final follow-up examination is performed on day 77. Patients are assessed at baseline and during office visits on days 14, 28, and 63 and on the day 77 follow up visit.
Efficacy is based on Lesion Surface Area. The size of each qualifying verruca wart is determined at each visit by measuring the longest dimension (long axis) and the corresponding widest dimension (90 to the long axis).
Investigator's Global Assessment Score (IGAS) is calculated based upon the following 4 point scale: 3 points=Complete clearance; 2 points=partial clearance: >50% reduction in the area of all treated wart; 1 point=partial eradication: <50% reduction in the area of all treated warts; 0 points=treatment failure: complete or partial eradication not achieved.
Immunotherapeutic responses are characterized by grading the erythema, edema, induration, and scaling on a four-point scale: 0 (none) to 4 severe at each visit.
Efficacy endpoints are determined based on the percent of patients achieving complete and partial eradication as measured by IGAS and reductions in warts lesion surface area. Subjects are assessed for the extent of their immunotherapeutic response to treatment based upon the degree of erythema, edema, induration and scaling. Safety is evaluated at each visit by recording and grading adverse events and ease of ambulation 4 point grading system is used.
All subjects (both treated and placebo groups) are sensitized with the initial sensitizing dose of 0.4% DPCP gel applied directly to one target wart and to the inner aspect of the right arm and then covered with an occlusive adhesive bandage pad for 24 hours.
The Investigator can determine if sensitization occurred at either of the application sites. If on day 14, the first “treatment visit”, no visible evidence of skin sensitization is observed then the subject can be dropped from the study. If on day 14 the investigator determines that sensitization has occurred, than the first treatment dose using the challenge dose (0.04% DPCP gel or placebo) randomly assigned upon enrollment can be administered by the investigator to all target warts and then covered with an occlusive adhesive bandage pad for 24 hours.
The patient is provided with a tube containing the appropriate challenge product (0.04% DPCP gel or placebo) with detailed instructions on how to apply the product two times per week and the proper handling and storage of the product between applications.
Two times per week the patient can apply the treatment dose (0.04% DPCP gel or placebo) to all target warts and then cover with an occlusive adhesive bandage pad for 24 hours.
The Investigator can apply the treatment dose (0.04% DPCP gel or placebo) to all target warts and then cover with an occlusive adhesive bandage pad for 24 hours.
The Investigator can apply the treatment dose (0.04% DPCP gel or placebo) to all target warts and then cover with an occlusive adhesive bandage pad for 24 hours. […] This is the final treatment. The patient is instructed to stop at home treatments and should return any unused gel. […]

Data set [2] relates to non-genital warts. The experiment in a line: Example 1: randomized, double-blind, placebo control study of low dose DPCP gel for non-genital warts. In kind it is in vivo, human. The procedure:
Patients were initially sensitized with 0.4% DPCP gel at the primary wart site. Approximately 14 days later and weekly thereafter for various periods, a challenge dose is then applied. A challenge dose of 0.04% DPCP was employed. The DPCP used was incorporated in a unique blend of surfactants, a viscosity agent, and a preservative.
A single center, randomized, double-blind, placebo control study using low dose DPCP in a non-volatile vehicle for the treatment of non-genital warts was conducted. Patients were assigned to a treatment or placebo group in a 2:1 fashion. The two study gels were identical in appearance. The treatment group was sensitized with 0.1 ml of 0.4% DPCP gel which was applied to the inner arm and washed off in 24 hours. Fourteen days after the sensitization dose, 0.1 ml of 0.04% DPCP gel was applied to each wart, up to a total of 4 warts, for 7 consecutive weeks (Day 14, 21, 28, 35, 42, 49, 56). A final follow-up examination was performed on day 70. Patients were assessed at baseline and during each of 7 week treatment visits and on day 70 follow up.
Efficacy was based on Lesion Surface Area. The size of each qualifying verruca wart was determined at each visit by measuring the longest dimension (long axis) and the corresponding widest dimension (90 to the long axis).
Immunotherapeutic responses were characterized by grading the erythema, edema, induration, and scaling on a four-point scale: 0 (none) to 4 severe at each visit.
Efficacy endpoints were determined based on the percent of patients achieving complete and partial eradication as measured by IGAS and reductions in warts lesion surface area. Subjects were assessed for the extent of their immunotherapeutic response to treatment based upon the degree of erythema, edema, induration and scaling. Safety was evaluated at each visit by recording and grading adverse events and ease of ambulation 4 point grading system was used.
Adults 18-75 years of age in general good health with at least one non-genital cutaneous wart 5-20 mm in size were eligible for participation in the study. […] Pregnant or nursing women were excluded. Patients with unstable medical condition or history of immunosuppression were excluded. Use of systemic steroids, immunosuppressants, immunomodulators or cimetidine was not allowed for 4 weeks prior to enrollment. Any prior wart therapy was not allowed for 4 weeks. […] Patients could not be actively enrolled in another clinical trial within the previous 30 days.

The conditions of data set [3]: general statement, no test described; cited from earlier work.
[4] abbreviates: 0.4% sensitizing dose, 0.04% challenge dose twice a week.
Where [5] appears, read: 0.4% sensitizing dose, 0.04% challenge dose weekly.

On to `O=c1c(-c2ccccc2)c1-c1ccccc1` [DPCP, diphenylcyclopropenone], for which the sensitization entry in data set [1] (0.4% DPCP sensitization dose given to both treatment and placebo group, 7 subjects) is “all were successfully sensitized”. Moreover, the side effects reported entry in data set [1] (setting [4]) and in data set [2] (setting [5]) was “No significant side effects were reported other than skin rash at the sensitization site” throughout. Besides, the “tolerability reported by patients” value in data set [1] (setting [4]) and in data set [2] (setting [5]) was “highly tolerable” each time. For the same compound, the “treated warts that achieved greater than 50% clearance” value in data set [1] (DPCP group, 1 of 6 warts) is recorded as 16%. For the same compound, the “treated warts that exhibited no clearance” value in data set [1] (DPCP group, 1 of 6 warts) is reported as 16%. Besides, the “treated warts with complete clearance” value in data set [1] (DPCP group, 4/6 warts, 0.04% gel twice a week) came out at 67%. The “subjects who obtained a clinical response/improvement” value in data set [1] (DPCP group, 4 of 5 subjects, 0.04% gel twice a week for 7 weeks) amounted to 80%; in data set [2] (DPCP group, 8 subjects, 0.4% sensitizing dose, then 0.04% gel weekly for 7 weeks), 100%. In addition, the “Clearance Score” value was 5 weeks + 3 in data set [1] (at 5 weeks, 0.04% gel twice a week); 7 weeks 0 and 7 weeks + 3 (3×) and 7 weeks + 2 (2 points=partial clearance: >50% reduction in the area of all treated wart) in data set [1] (at 7 weeks, 0.04% gel twice a week, listed as DPC). Further, the “warts with complete clearance” value in data set [2] (DPCP group, 11 of 25 warts, vs 1 of 15 vehicle treated warts, p=0.01) came out at 44%. Also, the “warts with partial to complete clearance” value in data set [2] (DPCP group, 19/25 warts, 0.4% sensitizing dose, then 0.04% gel weekly for 7 weeks) is 76%. The “severe reactions at the application site” value in data set [2] (challenge dose of 0.04% DPCP after 0.4% sensitizing dose) is on record as “did not result in observable severe reactions at the application site”. The “surrounding untreated warts completely cleared” value in data set [2] (one subject with numerous mosaic warts on the plantar foot, the 4 treated warts also completely cleared) is reported as above 50. The “mutagenicity, teratogenicity and organ toxicity” value in data set [3] is “not mutagenic, teratogenic and has no organ toxicity”.
